Source: patent US7271174B2, “Metabolites of tricyclic amides useful for inhibition of G-protein function and methods of treatment of proliferative diseases” (Schering Corporation, priority 2003, dated 2007)

Biological target: purified human farnesyl protein transferase (Homo sapiens, UniProt P49354+P49356)
Assay: (H-Ras) Farnesyl Transferase Inhibition assay
Format: biochemical
Conditions: transfer of [3H] farnesyl from [3H] farnesyl pyrophosphate to biotin-CVLS peptide; 37° C., 60 minutes; SPA beads
Description: Assay Conditions for (H-Ras) FPT
FPT activity was determined by measuring the transfer of [^3H] farnesyl from [^3H] farnesyl pyrophosphate to a biotinylated peptide derived from the C-terminus of H-Ras (biotin-CVLS). […] The reaction mixture was incubated in a Vortemp shaking incubator at 37° C., 45 RPM for 60 minutes and stopped with 150 μL of 0.25 M EDTA containing 0.5% BSA and 1.3 mg/ml Streptavidin SPA beads. […] Percent inhibition was calculated relative to the vehicle control.

IC50 [µM]	Structure (SMILES)
0.0026	NC(=O)N1CC=C(CC(=O)N2CCC([C@H]3c4ncc(Br)cc4CCc4cc(Cl)cc(Br)c43)CC2)CC1 [Compound 8, (+)-4-[2-[4-(3,10-dibromo-8-chloro-6,11-dihydro-5H-benzo[5,6]cyclohepta[1,2-b]pyridin-11(R)-yl)-1-piperidinyl]-2-oxoethyl]-3,4-didehydro-1-piperidine-carboxamide]
0.0233	NC(=O)N1CCC(=CC(=O)N2CCC([C@H]3c4ncc(Br)cc4CCc4cc(Cl)cc(Br)c43)CC2)CC1 [Compound 9, (+)-4-[2-[4-(3,10-Dibromo-8-chloro-6,11-dihydro-5H-benzo[5,6]cyclohepta[1,2-b]pyridin-11(R)-yl)-1-piperidinyl]-2-oxoethylidene]-1-piperidinecarboxamide]
